Reference: patent publication US5807891A, “Antiviral ethers of aspartate protease substrate isosteres” (priority 1994, dated 1998)
Where two headings read alike, the source gives them in different places.

Key:
[1] = system: HIV-1/LAV in human peripheral mononuclear blood cells; test: Antiviral activity in peripheral mononuclear blood cells infected with HIV-1, cumulative RT activity; format: cell-based
From the text: For the experiments using peripheral mononuclear blood cells, the cells are isolated from the blood of healthy HIV-seronegative human subjects using a combination of leukaphoresis and counter-current centrifugal elutriation in accordance with known methods (see Alteri, E., et al., Antimicrob. Agent Chemother. 37(10), 2087-92 (1993)).
The lymphocytotrophic isolate HIV-1/LAV (LAV.04/A.301), for example, is used as the virus (see Science 220, 868-71 (1983)).
The final concentration of free DMSO is less than 0.5%.
When peripheral mononuclear blood cells are used: The mixture of mononuclear cells (lymphocytes and monocytes), which is obtained as described above, is cultured, in the presence of 0.25 μg/ml phytohaemagglutinin (Wellcome Diagnostics, Temple Hill, Dartford, England), for two days in RPMI-1640 (GIBCO, Paisley, Scotland), 50 mU/ml penicillin, 50 μg/ml streptomycin (ANIMED, Muttenz, Switzerland), 2 mM L-glutamine (AMIMED, Muttenz, Switzerland) and 10 mM HEPES buffer (GIBCO, Paisley, Scotland). Successful activation is monitored by measuring the increase in cell size (scattergram, FCM analysis). The cells are resuspended in complete medium containing 10% human AB serum (Sigma, St. Louis, U.S.A.) and infected with HIV-1 for 6 h. After the viral adsorption, the cells are washed and resuspended in complete medium which is supplemented with 100 U/ml human recombinant IL-2 (Genzyme, Cambridge, U.S.A.). 9×10^4 cells are plated out per well (0.3 ml) in 96-well plates having U-shaped well bottoms. The antiviral compounds are added either alone or in combination to sets of five cell cultures in each case (pentaplicates) directly following the infection. Two thirds of the culture medium with or without antiviral compound(s) are replaced every three days. The test is concluded on day 13 after infection. The progress of the viral infection is measured by determining the RT activity as described above for the cell lines.
The activities of the individual compounds, and the combinations, specified in the title, in the peripheral mononuclear blood cell culture are determined using the method described above in association with the description of the pharmacological properties. The measurement result is expressed as the cumulative activity of the reverse transcriptase (RT), in cpm/1.25 μl (number of measured ^32 P disintegrations per 1.25 μl of test mixture and minute) on day 17 after the infection. […] The test compound(s) is/are re-added in associated with each change of the medium (on days 0, 3, 6, 10 and 13): […]

[2] = system: H9/HIV-1/IIIB cells cocultured with CEM-SS cells; test: Antiviral activity in coculture of CEM-SS cells and permanently infected H9/HIV-1/IIIB cells, RT activity; format: cell-based; settings: Human immunodeficiency virus 1, IIIB, 96 h; for inhibition at 0.0125 µM: 12.5 nM
Experimental: The final concentration of free DMSO is less than 0.5%. When using cell lines: The cell lines are maintained in complete culture medium of the following composition: RPMI 1640 (GIBCO, Paisley, Scotland), supplemented with 10% foetal calf serum (SEROMED, Berlin, Germany), 10 mM 4-(2-hydroxyethyl)piperazine-1-ethanesulfonic acid(=HEPES) and 2 mM L-glutamine (AMIMED, Muttenz, Switzerland). […] The test compounds are tested as individual substances or as a combination of two active substances in defined concentration ratios. H9/HIV-1/IIIB cells are mixed, after having been washed twice and having been suspended in fresh medium, with CEM-SS cells in a ratio of 1:50. 100 μl of the cell mixture are dispensed into each well of 96-well tissue culture plates with the wells in each case containing 400 H9/HIV-1/IIIB cells and 2×10^4 CEM-SS cells. Immediately after the cells have been dispensed, two-fold serial dilutions of the test compounds are added (100 μl per well) in each case in sets of six. Instead of this, 100 μl of medium are added to each well for the virus control (VC); CEM-SS cells on their own (without H9/HIV-1/IIIB cells) are used as the control (CC). The final volume is 200 μl/well. […] The virus production is determined as the virus-associated activity of the reverse transcriptase (RT) in accordance with the following method, which has already been described above (see […]., et al., Antimicrob. Agent Chemother. 37(10), 2087-92 (1993)): When carrying out the measurement, 30 μl of reverse transcriptase cocktail are added to each well. The reverse transcriptase cocktail consists of 50 mM Tris (α,α,α-tris(hydroxymethyl)methylamine, Ultra pur, Merck, Germany), pH 7.8; 75 mM KCl, 2 mM dithiothreitol, 5 mM MgCl2; 0.1% Nonidet P-40 (detergent; Sigma, Switzerland), 0.8 mM EDTA, 10 μg/ml poly-A (Pharmacia, Uppsala, Sweden) and 0.16 μg/ml oligo(T)(=pdT(12-18), Pharmacia, Uppsala, Sweden) as template primer. The mixture is filtered through a 0.45 μm Acrodisc filter (Gelman Sciences Inc., Ann Arbor, U.S.A.) and stored at -20° C. […] After mixing, the plate is incubated at 37° C. for 1.5 h. 5 μl of the reaction mixture are transferred to DE81 paper (Whatman, one filter per well). The dried filters are washed three times for 5 min with 300 mM NaCl/25 mM trisodium citrate and then once with ethanol, and air-dried once again. The radioactivity on the filters is measured in a Packard Matrix 96-well counter (Packard, Zurich, Switzerland). The antiretroviral effect is given as the % reduction in RT activity as compared with the VC values. The activities of the individual compounds, and the combinations, mentioned in the title, in the coculture of the CEM-SS cell line and the permanently infected cell line H9/HIV-1/IIIB are determined using the method described above in association with the description of the pharmacological properties. The measurement result is expressed as % reduction of the reverse transcriptase (RT) activity. The results are presented in the following table; measurement results which confirm the occurrence of synergism are emphasized by underlining: […]

[3] = in vivo; cited from earlier work
[4] = system: CD4 lymphocytes in the blood; settings: AIDS patients; cited from earlier work
[5] = system: HIV protease; settings: cited from earlier work
[6] = system: viral replication; settings: cited from earlier work
[7] = in vivo, po; cited from earlier work

## COCCNC(=O)[C@@H](NC(=O)[C@H](Cc1ccc(OC)c(OC)c1OC)C[C@H](O)[C@H](Cc1ccccc1)NC(=O)OC(C)(C)C)C(C)C [Example 47, 5(S)-(Boc-Amino)-4(S)-hydroxy-6-phenyl-2(R)-[(2,3,4-trimethoxyphenyl)methyl]hexanoyl-(L)-Val-N-(2-methoxyethyl)amide]
[1]; Example 47 concentration 7.5 alone (unit not given)
  Cumulative RT activity on day 17 after the infection: 7909 cpm/μl
[1]; Example 47 concentration 15 alone (unit not given)
  Cumulative RT activity on day 17 after the infection: 9132 cpm/μl
[1]; Example 47 concentration 30 alone (unit not given)
  Cumulative RT activity on day 17 after the infection: 8457 cpm/μl
[1]; Example 47 concentration 60 alone (unit not given)
  Cumulative RT activity on day 17 after the infection: 1823 cpm/μl
[1]; Example 47 concentration 120 alone (unit not given)
  Cumulative RT activity on day 17 after the infection: 49 cpm/μl
[2]; 3.125 nM, coculture, day 4, read-out: % Inhibition of the RT activity by Example 47 title compound alone
  inhibition at 0.003125 µM: 2.7%
[2]; 6.25 nM, coculture, day 4, read-out: % Inhibition of the RT activity by Example 47 title compound alone
  inhibition at 0.00625 µM: 1.3%
[2]; coculture, day 4, read-out: % Inhibition of the RT activity by Example 47 title compound alone
  inhibition at 0.0125 µM: 52%

## CC(C)(C)NC(=O)[C@@H]1CN(Cc2cccnc2)CCN1C[C@@H](O)C[C@@H](Cc1ccccc1)C(=O)N[C@H]1c2ccccc2C[C@H]1O [Indinavir]
[2]; coculture, day 4, read-out: % Inhibition of the RT activity by Indinavir alone
  inhibition at 0.0125 µM: 3.2%
[2]; 25 nM, coculture, day 4, read-out: % Inhibition of the RT activity by Indinavir alone
  inhibition at 0.025 µM: 59.7%

## CC(C)(C)NC(=O)[C@@H]1C[C@@H]2CCCC[C@@H]2CN1C[C@@H](O)[C@H](Cc1ccccc1)NC(=O)[C@H](CC(N)=O)NC(=O)c1ccc2ccccc2n1 [Saquinavir, N-tert-butyldecahydro-2-[2(R)-hydroxy-4-phenyl-3(S)-[[N-2-quinolylcarbonyl-L-asparaginyl]amino]butyl]-(4aS,8aS)-isoquinoline-3(S)-carboxamide]
[3]
  blood levels: useful blood levels were also achieved
[4]
  surrogate marker (titre of the CD4 lymphocytes in the blood): first positive effects
[2]; read-out: % Inhibition of the RT activity by Saquinavir alone
  inhibition at 0.00626 µM: 93.8%
[2]; read-out: % Inhibition of the RT activity by Saquinavir alone, 0.78 nM, coculture, day 4
  inhibition at 0.00078 µM: 6.6%
[2]; read-out: % Inhibition of the RT activity by Saquinavir alone, 1.56 nM, coculture, day 4
  inhibition at 0.00156 µM: 14.7%
[2]; read-out: % Inhibition of the RT activity by Saquinavir alone, 3.125 nM, coculture, day 4
  inhibition at 0.003125 µM: 39.3%
[5]
  effect on HIV protease in vitro: inhibitory effect
[6]
  viral replication in cell experiments: suppressed viral replication
[7]
  blood levels: useful blood levels were achieved
